In US20090036527A1, “Therapeutic Application Of Leonurine In Treating Cardiomyopathy” (priority 2007, published 2009):
Read-outs that look alike come from different tables or passages of the source.

Columns and labels:
[1] = Acta Physiologica Sinica 2007; cited from earlier work
[2] = Plasma Leonurine, cysteine and ascorbic acid levels (capillary electrophoresis) in rat heart failure model; assay type: in vivo; details: HF rats; for plasma Ascorbic acid level / plasma Cysteine level: 8 weeks; for concentration at 8 weeks: rat, plasma, oral, read-out: plasma Leonurine level
Protocol: (§1) Heart failure (HF) animal model, which was occlusive ligation of anterior descending coronary artery, was employed. All treatment was given via intragastric administration. The experimental period was 8 weeks. HF was induced on day eight by ligation of the left anterior descending coronary artery at approximately 2-3 mm from its origin. Briefly, the rats were anesthetized with 7% choral hydrate (60 mg/kg), endotracheally intubated and mechanically ventilated with room air, respiratory rate 100 breaths/min, tidal volume 2.5 ml with a rodent ventilator (DHX-150, China). ECG was recorded in the anaesthetized animal for a period of one minute using the Animal Mflab200 amplifier (Produced in China) as controls. A left thoracotomy was performed and the third intercostal space was exposed. The proximal left anterior descending coronary artery, which supplies blood to left ventricle of the heart, was ligated at the position 2-3 mm from the aorta with a 5-0 atraumatic suture that was passed through the superficial layers of myocardium, between the left auricle and the cone of pulmonary artery. […] Then incisions were sutured and the chests were closed. Sham operated rats were prepared in the same manner except the left coronary was not ligated. After completion of the surgical procedures, rats were removed from the ventilator and the endotracheal tube removed. The rats were kept warm, given water and food after they were awake from the anesthesia and kept in different cages according to experiment groups. The rats in correspondent experiment groups were given corresponding dosages of Leonurine continuously for 8 weeks, while the rats in control and MI groups were given no Leonurine. Two days after ligation, surviving rats were performed in four groups of rats in random fashion. Group 1: Sham-operated rats. The rats served as controls and received saline throughout the study. Group 2: Heart failure rats. This group consisted of rats with heart failure that received saline. Group 3: Heart failure plus low dose leonorine (15 mg/kg/day). Group 4: Heart failure plus high dose leonorine (30 mg/kg/day). All treatment was given via intragastric administration. The experimental period was 8 weeks. To evaluate the effect of Leonurine on HF, catheterizations to arteries and ventricles are performed to record heat rate (HR), mean aortic pressure (MAP), Left Ventricular Systolic Pressure (LVSP), Left Ventricular End-Diastolic Pressure (LVEDP), peak positive first derivative of left ventricular pressure (+dP/dt), peak negative first derivative of left ventricular pressure (−dP/dt). Data from the measurement of the recording were analyzed to observe the effect of Leonurine. Furthermore, plasma cysteine level and plasma ascorbic acid level were measured by capillary electrophoresis.

myocardial cells [3] = assay: MDA content of myocardial cells under hypoxia (TBA method); assay type: cell-based, rat; details: 10^−6 mol/L
Protocol: Myocardial cell samples were obtained from the same procedure of Example 1B, and the experiments were performed same as Example 1B with the same dosages and same conditions. Oxygen free radicals produced by enzyme and non enzyme systems in an organism attack poly unsaturated fatty acid in biomembrane, inducing lipid peroxidation and producing MDA (malondialdehyde). MDA can react with thiobarbituric acid (TBA), forms red product, which can be detected in spectrophotometer at 532 nm. The level of MDA can be used to indicate lipid peroxidation, thereby reflect condition of cell injury.

myocardial cells [4] = assay: LDH leakage (release) from hypoxia injured myocardial cells; assay type: cell-based, rat; details: hypoxia 6 hours; 10^−6 mol/L; vs vehicle (hypoxia) group; p<0.01
Protocol: Myocardial cell samples were obtained from the same procedure of Example 1A, the experiment groups were divided and hypoxia experiments were performed on Control group (no Leonurine treatment, no hypoxia/reoxygenation process), vehicle (hypoxia) group (no Leonurine treatment, under hypoxia condition for 6 hours), and Leonurine group (10^−6 mol/L). Myocardial cells were obtained from each sample (10^6 myocardial cells/sample) from the Control group, vehicle (hypoxia) group, Leonurine group. The cells were lysed under sterilized condition, and LDH (Lactate Dehydrogenase) contents in each sample of the cells were tested by pyruvic acid production method, using LDH content in Control sample cells as standard of 100%. The rate of LDH leakage (release) was calculated, which is the difference between LDH content of Control group samples and vehicle (hypoxia) group or Leonurine group or Losartan group.

[5] = tested on: animal heart failure model; assay: Cardiac function by catheterization in rat heart failure model; assay type: in vivo; details: HF rats, 8 weeks
Protocol: as §1

creatine kinase (CK) = details: concentration- and time-dependent; Zhao Wang et al. 2004; cited from earlier work
myocardial ischemic rat [6] = assay: Plasma MDA level and left ventricle SOD activity in MI rat model; assay type: in vivo; details: MI rats; 7.5 or 15 mg/Kg/day intraperitoneal
Source text: MDA reflect lipid peroxidation level in MI injuries myocardial cells. SOD plays an important role in balancing oxidant and antioxidant system in an organism. SOD can eliminate superoxide free radicals, thereby protect cells from injury. Same MI models in same rat groups as Experiment 2A were established. Plasma MDA level and left ventricle SOD activity were detected. […] (FIG. 9 and FIG. 10)

myocardial cells [7] = assay: Catalase activity of myocardial cells under hypoxia; assay type: cell-based, rat; details: 10^−6 mol/L
Protocol: Myocardial cell samples were obtained from the same procedure of Example 1B, and the experiments were performed same as Example 1B with the same dosages and same conditions. Catalase can catalyze oxygen free radicals, its activity in Leonurine treated hypoxia cells groups is elevated. (FIG. 3)

myocardial cells [8] = assay: SOD and CuZn-SOD activities of myocardial cells under hypoxia; assay type: cell-based, rat; details: 10^−6 mol/L
Protocol: Myocardial cell samples were obtained from the same procedure of Example 1B, and the experiments were performed same as Example 1B with the same dosages and same conditions. SOD (superoxide dismutase) plays an important role in balancing oxidant and antioxidant system in an organism. SOD can eliminate superoxide free radicals, thereby protect cells from injury. The activities of SOD and CuZn-SOD in Leonurine treated hypoxia cells are elevated. […] (FIG. 4)

[9] = tested on: vascular smooth muscle cells; details: Chen and Kwan, Life Sciences 2001; cited from earlier work
Bcl-2 and Bax = Bcl-2 and Bax mRNA and protein levels in MI rat model; assay type: in vivo; details: MI rats; 7.5 or 15 mg/Kg/day intraperitoneal
Source text: Bax is a gene promoting cell apoptosis. Bcl-2 is an anti apoptosis gene. Same MI models in same rat groups as Experiment 2A were established. mRNA and protein levels of Bax and Bcl-2 were detected. […] (FIG. 11 and FIG. 12)

myocardial ischemic rat [10] = assay: Plasma LDH and CK levels in MI rat model; assay type: in vivo; details: MI rats; 7.5 or 15 mg/Kg/day intraperitoneal; p<0.05
Protocol: MI injuries myocardial cells and CK and LDH levels are increased in the serum of the animals. After MI, the animal plasma CK level and LDH level were measured, and Leonurine's effects were assessed. Same MI models in same rat groups as Experiment 2A were established. Plasma CK levels were detected with diagnostic kit (NJBI, China) according to the instructions. LDH were determined colorimetrically with a spectrophotometer. […] (FIG. 7 and FIG. 8)

myocardial cells [11] = assay: Myocardial cell viability (MTT) after hypoxia; assay type: cell-based, rat; details: hypoxia 6 hours; 10^−6 mol/L; vs vehicle (MI) group; p<0.01
Protocol: The heart sample of 3 day old Sprague-Dawley (SD) rat (first generation) was washed in PBS (phosphate balanced solution) under sterilized condition. The sample is digested in 0.08% pancreatic enzyme solution 37 degree C for 10 minutes in a flask, wherein the solution was stirred constantly. In order to stop the digestion, serum was added into the flask and mixed with the solution. The digesting process was repeated 8 times, and the supernatant of each digestion was collected. The supernatant was centrifuged 2,000/minute for 5 minutes, and the myocardial cells were collected each time. The myocardial cell density was adjusted to 10^6/sample and cultured in DMEM containing 10% calf serum for 3 days.
The cultured myocardial cells were divided into the following groups:
Control group, no Leonurine treatment, no hypoxia process.
Hypoxia (vehicle, MI) group, no Leonurine treatment, under hypoxia condition for 6 hours.
Leonurine group, under hypoxia condition for 6 hours then cultured with corresponding treatment of Leonurine 10^−6 mol/L. […]
Myocardial cell viability was assessed by MTT method, which is the measurement of the reduction of 3-(4,5-dimethylthiazol-2-yl)-2,5-diphenyltetrazolium bromide (MTT). […] The amount of formazan was measured using a microplate reader at spectrum 570 nm.

myocardial ischemic rat [12] = assay: Infarct size (TTC staining) and mortality in MI rat model (coronary artery ligation); assay type: in vivo; details: MI rats, 7.5 or 15 mg/Kg/day intraperitoneal, vs saline

COc1cc(C(=O)OCCCCNC(=N)N)cc(OC)c1O [Kardigen]
anti-oxidative effects [1]: has anti-oxidative effects
prevention of ischemia cardiomyopathy [1]: can prevent ischemia cardiomyopathy effectively

COc1cc(C(=O)OCCCCNC(=N)N)cc(OC)c1O [Leonurine]
plasma Ascorbic acid level ([2]; 15 mg/kg/day intragastric): 26.02 ± 3.95 µmol/L
plasma Cysteine level ([2]; 15 mg/kg/day intragastric): 31.3 ± 21.32 µmol/L
plasma Ascorbic acid level ([2]; 30 mg/kg/day intragastric): 39.79 ± 4.33 µmol/L
plasma Cysteine level ([2]; 30 mg/kg/day intragastric): 35.29 ± 9.73 µmol/L
concentration at 8 weeks ([2]; 15 mg/kg/day intragastric): 7.42 ± 3.13 µM
concentration at 8 weeks ([2]; 30 mg/kg/day intragastric): 48 ± 11 µM
MDA level from lipid peroxidation (myocardial cells [3]): inhibited
LDH leaking (release) rate (myocardial cells [4]): lower
HR ([5]; 15 mg/kg/day intragastric): 441 ± 29 beats/min
LVEDP ([5]; 15 mg/kg/day intragastric): 11.53 ± 1.83 mmHg
LVSP ([5]; 15 mg/kg/day intragastric): 143.77 ± 26.82 mmHg
MAP ([5]; 15 mg/kg/day intragastric): 107.86 ± 31.23 mmHg
dP/dt ([5]; 15 mg/kg/day intragastric): 4205 ± 412.71 mmHg/s
−dP/dt ([5]; 15 mg/kg/day intragastric): −4368.83 ± 662.12 mmHg/s
HR ([5]; 30 mg/kg/day intragastric): 427 ± 78 beats/min
LVEDP ([5]; 30 mg/kg/day intragastric): 13 ± 5.96 mmHg
LVSP ([5]; 30 mg/kg/day intragastric): 126.37 ± 2.28 mmHg
MAP ([5]; 30 mg/kg/day intragastric): 92.59 ± 10.91 mmHg
dP/dt ([5]; 30 mg/kg/day intragastric): 4095 ± 433.45 mmHg/s
−dP/dt ([5]; 30 mg/kg/day intragastric): −3276.62 ± 283.77 mmHg/s
activity of creatine kinase (CK) (creatine kinase (CK)): inhibits the enzyme activity
left ventricle SOD activity (myocardial ischemic rat [6]): increase
plasma MDA level (myocardial ischemic rat [6]): significantly reduce
Catalase activity (myocardial cells [7]): elevated
CuZn-SOD activity (myocardial cells [8]): elevated
SOD activity (myocardial cells [8]): elevated
contraction of the smooth muscle cells [9]: inhibiting
intracellular calcium ion release and outside calcium ion influx through calcium channels [9]: inhibits
Bax mRNA expression (Bcl-2 and Bax): significantly reduce
Bax protein expression (Bcl-2 and Bax): significantly reduce
Bcl-2 mRNA expression (Bcl-2 and Bax): increase
Bcl-2 protein expression (Bcl-2 and Bax): increase
plasma CK level (myocardial ischemic rat [10]): significantly reduce
plasma LDH level (myocardial ischemic rat [10]): significantly reduce
survival rate of myocardial cell (cell viability) (myocardial cells [11]): significantly increase
infarct size of myocardium (myocardial ischemic rat [12]; 7 days before and 2 days after ligation): significantly less
mortality rate (myocardial ischemic rat [12]): not difference

CCCCc1nc(Cl)c(CO)n1Cc1ccc(-c2ccccc2-c2nn[nH]n2)cc1 [Losartan, reference compound]
LDH leaking (release) rate (myocardial cells [4]): lower
